Where two headings read alike, the source gives them in different places.
Columns and labels:
BTK [1] = target: T1, BTK (Homo sapiens (Human), UniProt Q06187); experiment: Omnia assay for potency assessment against BTK; format: biochemical; conditions: [BTK]=5 nM, Omnia assay; read-out: BTK Inhibition (IC50)
Description: The modified BTK-optimized reagent conditions for the above protocol are:
[BTK]=5 nM, [ATP]=[…], [Y5-Sox]=[…] (ATP KMapp˜[…]).

BTK [2] = target: T1, BTK; experiment: BTK Ramos cellular assay (PLCγ2 phosphorylation); format: cell-based; conditions: Ramos cells, 1 hour compound, anti-IgM stimulation, p-PLCγ2; read-out: BTK Inhibition (IC50), BTK Ramos cellular inhibition
Description: Ramos cells were grown in suspension in T225 flasks, spun down, resuspended in 50 ml serum-free media and incubated for 1 hour. […] Ramos cells were incubated with compound for 1 hour, washed again and resuspended in 100 ul serum-free media. Cells were then stimulated with 1 μg of goat F(ab′)2 Anti-Human IgM and incubated on ice for 10 minutes to activate B cell receptor signaling pathways. After 10 minutes, the cells were washed once with PBS and then lysed on ice with Invitrogen Cell Extraction buffer. 16 μg total protein from lysates were loaded on gel and blots were probed for phosphorylation of the BTK substrate PLCγ2.

ITK = ITK (Homo sapiens (Human), UniProt Q08881); experiment: Omnia assay for potency assessment against active forms of ITK kinase; format: biochemical; conditions: [ITK]=10 nM, [ATP]=25, [Y6-Sox]=10 μM; read-out: ITK Inhibition
Description: [ITK]=10 nM, [ATP]=25 [Y6-Sox]=10 μM (ATP KMapp=33 μM).

EGFR-WT = EGFR-WT (Homo sapiens (Human), UniProt P00533); experiment: Omnia assay for potency assessment against EGFR (WT)
[3] = read-out: EGFR (wild type inhibition), EGFR wild type

T1 sequence (Q06187 whole entry): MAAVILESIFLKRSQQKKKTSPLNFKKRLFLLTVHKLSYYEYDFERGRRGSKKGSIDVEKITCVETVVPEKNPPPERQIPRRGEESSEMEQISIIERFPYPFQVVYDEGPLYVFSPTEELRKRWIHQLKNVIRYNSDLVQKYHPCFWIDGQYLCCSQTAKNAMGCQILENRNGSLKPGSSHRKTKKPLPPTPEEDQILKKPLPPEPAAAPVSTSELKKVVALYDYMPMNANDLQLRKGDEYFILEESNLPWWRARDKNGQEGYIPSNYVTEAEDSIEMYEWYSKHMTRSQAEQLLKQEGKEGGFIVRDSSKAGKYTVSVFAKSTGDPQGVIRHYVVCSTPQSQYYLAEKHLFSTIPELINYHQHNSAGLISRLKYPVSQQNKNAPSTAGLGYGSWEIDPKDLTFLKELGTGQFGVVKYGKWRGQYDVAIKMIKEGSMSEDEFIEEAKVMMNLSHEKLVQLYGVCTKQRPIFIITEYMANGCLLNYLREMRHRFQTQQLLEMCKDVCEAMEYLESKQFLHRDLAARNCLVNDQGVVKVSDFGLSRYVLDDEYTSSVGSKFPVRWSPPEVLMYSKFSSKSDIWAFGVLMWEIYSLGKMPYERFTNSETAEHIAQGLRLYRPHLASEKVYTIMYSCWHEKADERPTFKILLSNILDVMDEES
Sequence of EGFR-WT (P00533 668-1210): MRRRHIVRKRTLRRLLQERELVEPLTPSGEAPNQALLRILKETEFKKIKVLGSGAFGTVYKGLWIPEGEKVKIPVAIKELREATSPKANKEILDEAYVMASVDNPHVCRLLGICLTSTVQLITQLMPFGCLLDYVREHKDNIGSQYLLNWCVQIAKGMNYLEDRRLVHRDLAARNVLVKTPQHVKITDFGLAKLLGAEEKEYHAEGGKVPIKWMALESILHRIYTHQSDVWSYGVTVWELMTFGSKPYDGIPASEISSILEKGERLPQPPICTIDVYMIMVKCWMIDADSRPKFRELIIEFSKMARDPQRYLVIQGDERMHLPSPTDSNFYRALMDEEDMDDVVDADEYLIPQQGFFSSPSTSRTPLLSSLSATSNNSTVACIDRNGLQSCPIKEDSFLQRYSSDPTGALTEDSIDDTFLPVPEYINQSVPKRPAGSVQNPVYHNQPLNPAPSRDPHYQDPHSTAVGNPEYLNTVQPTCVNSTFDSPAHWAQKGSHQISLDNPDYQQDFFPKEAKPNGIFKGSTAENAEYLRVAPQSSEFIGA
Sequence of ITK (Q08881 whole entry): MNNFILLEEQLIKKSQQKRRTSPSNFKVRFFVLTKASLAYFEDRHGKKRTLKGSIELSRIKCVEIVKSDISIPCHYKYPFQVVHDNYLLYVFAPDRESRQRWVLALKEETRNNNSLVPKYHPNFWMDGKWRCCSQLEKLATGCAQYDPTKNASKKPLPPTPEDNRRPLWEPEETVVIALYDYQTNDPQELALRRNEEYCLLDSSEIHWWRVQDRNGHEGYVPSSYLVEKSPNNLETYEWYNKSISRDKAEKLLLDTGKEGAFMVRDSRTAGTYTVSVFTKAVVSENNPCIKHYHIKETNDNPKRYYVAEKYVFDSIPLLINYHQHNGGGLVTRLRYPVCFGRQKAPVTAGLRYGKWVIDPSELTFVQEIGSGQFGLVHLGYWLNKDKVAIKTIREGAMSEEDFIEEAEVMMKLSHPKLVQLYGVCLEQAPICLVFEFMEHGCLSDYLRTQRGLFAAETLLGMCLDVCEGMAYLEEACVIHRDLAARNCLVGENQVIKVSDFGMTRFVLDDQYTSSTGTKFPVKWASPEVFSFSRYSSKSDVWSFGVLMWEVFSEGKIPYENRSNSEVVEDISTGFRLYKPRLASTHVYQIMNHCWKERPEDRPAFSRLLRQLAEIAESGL

SMILES	IC50 (BTK [1])	IC50 (BTK [2])	IC50 (ITK)	IC50 (EGFR-WT; [3])	IC50 (EGFR-WT)
C=CC(=O)Nc1cccc(Oc2nc(Nc3ccc(OC)nc3)ncc2C(=O)Nc2ccccc2)c1 [Compound I-159, 4-(3-acrylamidophenoxy)-2-(6-methoxypyridin-3-ylamino)-pyrimidine-5-carboxylic acid phenylamide]	< 10 nM	100 to 1000 nM	100 to 1000 nM	< 10 nM	
C=CC(=O)Nc1cccc(Nc2nc(Nc3cccc(S(N)(=O)=O)c3)ncc2F)c1 [Compound I-160, N-(3-(5-fluoro-2-(3-sulfamoylphenylamino)pyrimidin-4-ylamino)phenyl)acrylamide]	< 10 nM	10 to 100 nM	< 10 nM	< 10 nM	
C=CC(=O)N1Cc2ccc(Nc3nc(Nc4ccc(OC)nc4)ncc3F)cc2C1 [Compound I-165, 1-(5-(5-fluoro-2-(6-methoxypyridin-3-ylamino)pyrimidin-4-ylamino)isoindolin-2-yl)prop-2-en-1-one]	< 10 nM	10 to 100 nM	< 10 nM		100 to 1000 nM
C=CC(=O)N1CCc2ccc(Nc3nc(Nc4ccc(OC)nc4)ncc3F)cc21 [Compound I-166, 1-(6-(5-fluoro-2-(6-methoxypyridin-3-ylamino)pyrimidin-4-ylamino)indolin-1-yl)prop-2-en-1-one]	< 10 nM	10 to 100 nM	< 10 nM		100 to 1000 nM
C=CC(=O)Nc1cccc(Nc2nc(Nc3ccc(OC)nc3)ncc2C2CC2)c1 [Compound I-167, N-(3-(5-cyclopropyl-2-(6-methoxypyridin-3-ylamino)pyrimidin-4-ylamino)phenyl)acrylamide]	< 10 nM	10 to 100 nM	< 10 nM	< 10 nM	
C=CC(=O)N1CCOc2ccc(Nc3nc(Nc4ccc(N5CCOCC5)nc4)ncc3C(C)=O)cc21 [Compound I-168, 1-{6-[5-Acetyl-2-(6-morpholin-4-yl-pyridin-3-ylamino)-pyrimidin-4-ylamino]-2,3-dihydro-benzo[1,4]oxazin-4-yl}-propenone]	< 10 nM	10 to 100 nM	< 10 nM		10 to 100 nM
C=CC(=O)N1CCOc2ccc(Nc3nc(Nc4ccc(N5CCOCC5)cc4)ncc3C(C)=O)cc21 [Compound I-169, 1-{6-[5-Acetyl-2-(4-morpholin-4-yl-phenylamino)-pyrimidin-4-ylamino]-2,3-dihydro-benzo[1,4]oxazin-4-yl}-propenone]	< 10 nM	< 10 nM	< 10 nM	< 10 nM	
C=CC(=O)Nc1cccc(Nc2nc(Nc3ccc(OC(C)C)nc3)ncc2F)c1 [Compound I-172, N-(3-(5-fluoro-2-(6-isopropoxypyridin-3-ylamino)pyrimidin-4-ylamino)phenyl)acrylamide]	< 10 nM	< 10 nM	10 to 100 nM		100 to 1000 nM
C=CC(=O)Nc1cccc(Nc2nc(Nc3ccc(OC)nc3)ncc2C#N)c1 [Compound I-173, N-(3-(5-cyano-2-(6-methoxypyridin-3-ylamino)pyrimidin-4-ylamino)phenyl)acrylamide]	< 10 nM	< 10 nM	< 10 nM	< 10 nM	
C=CC(=O)Nc1cccc(Nc2nc(Nc3ccc4c(c3)NCCO4)ncc2F)c1 [Compound I-174]	< 10 nM	< 10 nM	< 10 nM	< 10 nM	
C=C(C)C(=O)c1ccc(Nc2nc(Nc3ccccc3)ncc2F)cc1 [Compound I-185, 1-(4-(5-fluoro-2-(phenylamino)pyrimidin-4-ylamino)phenyl)-2-methylprop-2-en-1-one]	< 10 nM	100 to 1000 nM	< 10 nM		10 to 100 nM
C=CC(=O)Nc1cccc(Oc2nc(Nc3ccc(OC)nc3)ncc2C)c1 [Compound I-186, N-(3-(2-(6-methoxypyridin-3-ylamino)-5-methylpyrimidin-4-yloxy)phenyl)acrylamide]	< 10 nM	< 10 nM	< 10 nM	< 10 nM	
C=CC(=O)Nc1cccc(Oc2nc(Nc3ccc(OC)nc3)ncc2C(C)=O)c1 [Compound I-188, N-{3-[5-Acetyl-2-(6-methoxy-pyridin-3-ylamino)-pyrimidin-4-yloxy]-phenyl}-acrylamide]	< 10 nM	< 10 nM	< 10 nM	< 10 nM	
C=CC(=O)Nc1cccc(Nc2nc(Nc3ccc(OC)nc3)ncc2C(C)=O)c1 [Compound I-189, N-{3-[5-Acetyl-2-(6-methoxy-pyridin-3-ylamino)-pyrimidin-4-ylamino]-phenyl}-acrylamide]	< 10 nM	10 to 100 nM	< 10 nM		10 to 100 nM
C=CC(=O)N1CCC[C@@H](Oc2nc(Nc3cccc(OC)c3)ncc2F)C1 [Compound I-190, (R)-1-(3-(5-fluoro-2-(3-methoxyphenylamino)pyrimidin-4-yloxy)piperidin-1-yl)prop-2-en-1-one]	< 10 nM	10 to 100 nM	10 to 100 nM		100 to 1000 nM

The remaining lines, values ahead:

IC50 (BTK [1])	IC50 (BTK [2])	IC50 (ITK)	IC50 (EGFR-WT; [3])	IC50 (EGFR-WT)	SMILES
< 10 nM	10 to 100 nM	< 10 nM		10 to 100 nM	C=CC(=O)Nc1cccc(Nc2nc(Nc3ccc(OC)nc3)ncc2OC)c1 [Compound I-192, N-(3-(5-methoxy-2-(6-methoxypyridin-3-ylamino)pyrimidin-4-ylamino)phenyl)acrylamide]
< 10 nM	< 10 nM	< 10 nM		10 to 100 nM	C=CC(=O)N1CCOc2ccc(Nc3nc(Nc4ccc(OC)nc4)ncc3F)cc21 [Compound I-194, 1-(6-(5-fluoro-2-(6-methoxypyridin-3-ylamino)pyrimidin-4-ylamino)-2H-benzo[b][1,4]oxazin-4(3H)-yl)prop-2-en-1-one]
< 10 nM	< 10 nM	100 to 1000 nM	< 10 nM		C=CC(=O)Nc1cccc(Nc2nc(Nc3ccc(OCCCNC(=O)OC(C)(C)C)cc3)ncc2F)c1 [Compound I-198, tert-butyl 3-(4-(4-(3-acrylamidophenylamino)-5-fluoropyrimidin-2-ylamino)phenoxy)propylcarbamate]
< 10 nM	100 to 1000 nM	100 to 1000 nM		10 to 100 nM	C=CC(=O)N1CCC(Nc2nc(Nc3cccc(OC)c3)ncc2F)C1 (stereo not drawn) [Compound I-201, 1-(3-(5-fluoro-2-(3-methoxyphenylamino)pyrimidin-4-ylamino)pyrrolidin-1-yl)prop-2-en-1-one]
< 10 nM	100 to 1000 nM	100 to 1000 nM		100 to 1000 nM	C=CC(=O)N1CCC[C@@H](Nc2nc(Nc3ccc(OC)nc3)ncc2F)C1 [Compound I-202, (R)-1-(3-(5-fluoro-2-(6-methoxypyridin-3-ylamino)pyrimidin-4-ylamino)piperidin-1-yl)prop-2-en-1-one]
< 10 nM	10 to 100 nM	10 to 100 nM		10 to 100 nM	C=CC(=O)Nc1cccc(Nc2nc(Nc3cccc(OCCCN4CCOCC4)c3)ncc2F)c1 [Compound I-208, N-(3-(5-fluoro-2-(3-(3-morpholinopropoxy)phenylamino)pyrimidin-4-ylamino)phenyl)acrylamide]
< 10 nM	10 to 100 nM	< 10 nM		10 to 100 nM	C=CC(=O)Nc1cccc(Nc2nc(Nc3ccc(OC)nc3)ncc2C(N)=O)c1 [Compound I-209, 4-(3-acrylamidophenylamino)-2-(6-methoxypyridin-3-ylamino)pyrimidine-5-carboxamide]
< 10 nM	< 10 nM	10 to 100 nM	10 to 100 nM		C=CC(=O)Nc1cccc(Nc2nc(Nc3cccc(OC)c3)ncc2C(N)=O)c1 [Compound I-210, 4-(3-acrylamidophenylamino)-2-(3-methoxyphenylamino)pyrimidine-5-carboxamide]
< 10 nM	< 10 nM	10 to 100 nM		10 to 100 nM	C=CC(=O)Nc1cccc(Oc2nc(Nc3ccc(OC)nc3)ncc2F)c1 [Compound I-217]
< 10 nM	10 to 100 nM	100 to 1000 nM		100 to 1000 nM	C=CC(=O)N(C)Cc1cccc(Nc2nc(Nc3ccccc3)ncc2C)c1 [Compound I-220, N-methyl-N-(3-(5-methyl-2-(phenylamino)pyrimidin-4-ylamino)benzyl)acrylamide]
< 10 nM	< 10 nM	< 10 nM	< 10 nM		C=CC(=O)Nc1cccc(Nc2nc(Nc3cccc(OCCN(C)C)c3)ncc2F)c1 [Compound I-233, N-(3-(2-(3-(2-(dimethylamino)ethoxy)phenylamino)-5-fluoropyrimidin-4-ylamino)phenyl)acrylamide]
< 10 nM	< 10 nM	100 to 1000 nM		100 to 1000 nM	C=CC(=O)Nc1cccc(Nc2nc(Nc3ccc(Cl)c(OCC(C)(C)O)c3)ncc2F)c1 [Compound I-249, N-(3-(2-(4-chloro-3-(2-hydroxy-2-methylpropoxy)phenylamino)-5-fluoropyrimidin-4-ylamino)phenyl)acrylamide]

From US9987276B2 (Celgene CAR LLC, priority 2008, dated 2018)
